Measurements as given in paper PMC12752627, “Discovery of a Potent and Selective TEAD Degrader with Durable Degradation Activity” (Advanced Science, 2025).

How the values were obtained:
Format in all cases: cell-based
[1] = test system: 867 cancer cell lines; assay: PRISM assay (barcoded cell line screening, 5 days); set-up: KG-FP-003-AUC: scale not given here;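 note: top test concentration 10 mM in eight-point dilution series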
Description: The principle of the PRISM assay has been described elsewhere and was conducted as previously outlined by the PRISM team at the Broad Institute.^[ [14], [31] ^] In PRISM (MTS027) experiments, KG‐FP‐003 was tested across 867 different cancer cell lines. Cells were treated with eight concentration gradients, ranging from 4.6 nM to […], in triplicate dilutions over a period of five days. Each plate was treated with 20 µM bortezomib as a positive control and DMSO as a negative control. Three replicate experiments were performed for each compound. The resulting data were analyzed using GraphPad PRISM 9.5.

[2] = molecular target: TEAD1 (Homo sapiens, UniProt P28347); assay: Immunoblot of TEAD1 degradation in TEAD1-mNeonGreen fusion NCI-H1299 cells; set-up: endogenous in cells; host or cells: NCI-H1299 (TEAD1-mNeonGreen knock-in); settings: 100 nM, TEAD1-mNeonGreen fusion NCI-H1299 cells
Description: Immunoblotting was carried out as previously described.^[ [29] ^] Cells were seeded in 6‐well plates (Yeasen, #84011ES50) at a density of 1 million cells per well. The following day, cells were treated with compounds at the required concentrations, with the DMSO concentration kept below 0.4‰ to prevent toxic effects on the cells. The collected cell pellets were washed three times with PBS (Meilunbio, #MA0015) and resuspended in 120 µL of RIPA lysis buffer (Meilunbio, #MA0151) containing 1% protease inhibitor (Meilunbio, #MB2678‐2). The cells were then sonicated on ice and centrifuged at 12 000 rpm for 15 min at 4 °C to remove cellular debris. Protein concentrations were determined using the BCA Protein Quantification Kit (Meilunbio, #MA0082‐1). The protein samples were normalized, boiled at 99 °C for 10 min, and then subjected to electrophoresis on a 10% SDS‐PAGE gel. The separated protein bands were transferred to nitrocellulose membranes, blocked with TBST containing 5% BSA, and incubated with the indicated primary antibodies. Finally, the blots were imaged using an Amersham Typhoon NIR imager.

[3] = test system: NCI-H226 cells; assay: Cell viability assay (CTG, 72 h) NCI-H226; settings: Homo sapiens, NCI-H226, 72 h; 3-day antiproliferation; read-out: IC50 (nM ± SD), NCI-H226
Description: Cells were seeded at a density of 1000 cells per well in 96‐well flat‐bottomed cell culture plates and cultured overnight at 37 °C with 5% CO2 to allow for cell attachment. The following day, different concentrations of compounds were added using an I‐DOT dispenser. After 72 h, 25 µL of CellTiter‐Meiluncell Luminescent Cell Viability Reagent (Meilunbio, #PWL111‐2) was added and incubated for 15 min at room temperature. Luminescence signals were then measured using an Envision plate reader (Revvity). Data were analyzed using GraphPad Prism 9.5 software.^[ [30] ^]

Sequence of TEAD1 (P28347 whole entry, the tested form may be a part): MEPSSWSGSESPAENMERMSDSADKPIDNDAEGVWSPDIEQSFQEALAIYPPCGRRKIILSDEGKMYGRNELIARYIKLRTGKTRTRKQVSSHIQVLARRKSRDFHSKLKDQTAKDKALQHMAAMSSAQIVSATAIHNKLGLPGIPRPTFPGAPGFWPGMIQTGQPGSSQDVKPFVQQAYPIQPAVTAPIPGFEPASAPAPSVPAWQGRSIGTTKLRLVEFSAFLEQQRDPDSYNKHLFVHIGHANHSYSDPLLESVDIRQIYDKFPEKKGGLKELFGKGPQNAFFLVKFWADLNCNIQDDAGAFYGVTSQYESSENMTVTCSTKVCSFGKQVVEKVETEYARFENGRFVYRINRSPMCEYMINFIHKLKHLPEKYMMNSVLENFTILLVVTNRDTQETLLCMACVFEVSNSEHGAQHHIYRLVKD
Sequence of TEAD1 (Q96SW2 whole entry, further chain, the tested form may be a part): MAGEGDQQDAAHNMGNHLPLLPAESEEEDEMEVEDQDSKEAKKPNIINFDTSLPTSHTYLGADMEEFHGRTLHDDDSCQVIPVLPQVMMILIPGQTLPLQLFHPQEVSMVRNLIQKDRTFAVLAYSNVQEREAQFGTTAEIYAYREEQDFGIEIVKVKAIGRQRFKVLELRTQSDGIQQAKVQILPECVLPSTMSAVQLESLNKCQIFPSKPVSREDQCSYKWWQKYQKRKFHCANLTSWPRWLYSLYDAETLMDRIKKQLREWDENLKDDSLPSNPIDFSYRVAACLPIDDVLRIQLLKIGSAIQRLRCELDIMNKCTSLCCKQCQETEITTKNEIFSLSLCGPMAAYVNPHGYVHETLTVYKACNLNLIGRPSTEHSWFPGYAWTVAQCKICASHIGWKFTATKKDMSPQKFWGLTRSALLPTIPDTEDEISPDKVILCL
Sequence of TEAD1 (Q16531 2-1140 partner limits assumed): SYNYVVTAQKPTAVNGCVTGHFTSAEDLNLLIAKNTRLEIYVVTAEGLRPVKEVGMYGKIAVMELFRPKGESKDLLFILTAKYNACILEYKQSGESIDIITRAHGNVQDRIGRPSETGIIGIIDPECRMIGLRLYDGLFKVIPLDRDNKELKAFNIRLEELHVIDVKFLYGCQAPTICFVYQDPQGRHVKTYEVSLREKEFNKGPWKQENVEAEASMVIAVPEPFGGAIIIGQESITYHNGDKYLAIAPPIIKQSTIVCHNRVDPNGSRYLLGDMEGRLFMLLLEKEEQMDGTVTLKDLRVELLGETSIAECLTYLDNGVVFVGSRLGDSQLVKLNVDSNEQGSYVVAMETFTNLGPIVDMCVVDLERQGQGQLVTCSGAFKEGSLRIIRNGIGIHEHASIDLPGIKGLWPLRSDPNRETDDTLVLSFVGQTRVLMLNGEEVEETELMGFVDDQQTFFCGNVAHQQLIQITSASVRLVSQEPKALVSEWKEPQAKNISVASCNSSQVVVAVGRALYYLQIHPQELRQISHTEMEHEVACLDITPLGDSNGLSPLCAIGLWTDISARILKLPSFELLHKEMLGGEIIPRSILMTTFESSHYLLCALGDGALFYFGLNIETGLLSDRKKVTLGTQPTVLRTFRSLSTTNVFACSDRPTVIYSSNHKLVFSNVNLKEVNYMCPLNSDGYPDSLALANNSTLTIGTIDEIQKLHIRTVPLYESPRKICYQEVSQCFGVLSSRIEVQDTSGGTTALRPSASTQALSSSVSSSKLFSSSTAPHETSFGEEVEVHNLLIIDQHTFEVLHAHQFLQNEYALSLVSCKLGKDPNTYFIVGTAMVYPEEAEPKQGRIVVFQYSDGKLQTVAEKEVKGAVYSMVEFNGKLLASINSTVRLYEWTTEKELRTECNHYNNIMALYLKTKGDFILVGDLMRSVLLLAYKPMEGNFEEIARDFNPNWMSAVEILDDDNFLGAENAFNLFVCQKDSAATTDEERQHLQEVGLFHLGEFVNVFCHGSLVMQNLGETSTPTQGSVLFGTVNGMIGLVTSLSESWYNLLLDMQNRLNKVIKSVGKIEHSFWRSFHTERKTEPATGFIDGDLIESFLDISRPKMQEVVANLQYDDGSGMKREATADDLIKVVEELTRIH

CNC(=O)c1cc2c(c(F)c1-c1c(Cl)c(F)cc3c1C[C@@](CN[C@H]1CC[C@H](C(=O)N4CCC(CC5CCN(C(=O)COc6ccc(N7CCC(=O)NC7=O)c(C)c6)CC5)CC4)CC1)(c1ccccc1)O3)[C@@H](O)[C@@H](C)C2 [KG-FP-003]
KG-FP-003-AUC ([1]; DANG_PANCREAS ACH-000243 PR500): 0.98 | KG-FP-003-AUC ([1]; DAOY_CENTRAL_NERVOUS_SYSTEM ACH-000211 PR300): 0.93 | KG-FP-003-AUC ([1]; DAOY_CENTRAL_NERVOUS_SYSTEM ACH-000211 PR500): 0.92 | KG-FP-003-AUC ([1]; DBTRG05MG_CENTRAL_NERVOUS_SYSTEM ACH-000863 PR500): 0.64 | KG-FP-003-AUC ([1]; DEL_HAEMATOPOIETIC_AND_LYMPHOID_TISSUE ACH-000233 PR300): 0.87 | KG-FP-003-AUC ([1]; DETROIT562_UPPER_AERODIGESTIVE_TRACT ACH-000207 PR500): 0.81 | KG-FP-003-AUC ([1]; DKMG_CENTRAL_NERVOUS_SYSTEM ACH-000244 PR500): 0.85 | KG-FP-003-AUC ([1]; DL_SOFT_TISSUE ACH-001059 PR300): 0.70 | KG-FP-003-AUC ([1]; DMS53_LUNG ACH-000698 PR300): 1.00 | KG-FP-003-AUC ([1]; DMS273_LUNG ACH-000749 PR500): 0.99 | KG-FP-003-AUC ([1]; DND41_HAEMATOPOIETIC_AND_LYMPHOID_TISSUE ACH-000981 PR300): 0.75 | KG-FP-003-AUC ([1]; DOHH2_HAEMATOPOIETIC_AND_LYMPHOID_TISSUE ACH-000056 PR300): 0.76 | KG-FP-003-AUC ([1]; DOTC24510_CERVIX ACH-001341 PR300): 0.78 | KG-FP-003-AUC ([1]; DU145_PROSTATE ACH-000979 PR500): 0.93 | KG-FP-003-AUC ([1]; DU4475_BREAST ACH-000258 PR300): 0.97 | KG-FP-003-AUC ([1]; DV90_LUNG ACH-000925 PR500): 1.00 | KG-FP-003-AUC ([1]; EB1_HAEMATOPOIETIC_AND_LYMPHOID_TISSUE ACH-000877 PR300): 0.99 | KG-FP-003-AUC ([1]; EBC1_LUNG ACH-000563 PR500): 0.77 | KG-FP-003-AUC ([1]; ECC2_BILIARY_TRACT ACH-001997 PR300): 0.76 | KG-FP-003-AUC ([1]; ECGI10_OESOPHAGUS ACH-000305 PR500): 0.96 | KG-FP-003-AUC ([1]; EFE184_ENDOMETRIUM ACH-000435 PR300): 0.72 | KG-FP-003-AUC ([1]; EFM19_BREAST ACH-000330 PR300): 0.99 | KG-FP-003-AUC ([1]; EFM192A_BREAST ACH-000117 PR500): 0.99 | KG-FP-003-AUC ([1]; EFO21_OVARY ACH-000308 PR500): 0.71 | KG-FP-003-AUC ([1]; EFO27_OVARY ACH-000936 PR500): 0.77 | KG-FP-003-AUC ([1]; EGI1_BILIARY_TRACT ACH-001494 PR300): 0.88 | KG-FP-003-AUC ([1]; EKVX_LUNG ACH-000706 PR300): 0.71 | KG-FP-003-AUC ([1]; EM2_HAEMATOPOIETIC_AND_LYMPHOID_TISSUE ACH-000295 PR300): 0.94 | KG-FP-003-AUC ([1]; EMTOKA_ENDOMETRIUM ACH-001495 PR300): 0.83 | KG-FP-003-AUC ([1]; EOL1_HAEMATOPOIETIC_AND_LYMPHOID_TISSUE ACH-000198 PR300): 0.69 | KG-FP-003-AUC ([1]; ES2_OVARY ACH-000906 PR500): 0.62 | KG-FP-003-AUC ([1]; ESS1_ENDOMETRIUM ACH-000913 PR500): 0.56 | KG-FP-003-AUC ([1]; EW8_BONE ACH-000499 PR300): 0.98 | KG-FP-003-AUC ([1]; EWS502_BONE ACH-000279 PR300): 0.99 | KG-FP-003-AUC ([1]; EWS502_BONE ACH-000279 PR500): 0.99 | KG-FP-003-AUC ([1]; FADU_UPPER_AERODIGESTIVE_TRACT ACH-000846 PR500): 0.92 | KG-FP-003-AUC ([1]; FLO1_OESOPHAGUS ACH-001500 PR300): 0.75 | KG-FP-003-AUC ([1]; FTC133_THYROID ACH-000903 PR500): 0.99 | KG-FP-003-AUC ([1]; FTC238_THYROID ACH-000897 PR500): 0.91 | KG-FP-003-AUC ([1]; G292CLONEA141B1_BONE ACH-000082 PR300): 0.64 | KG-FP-003-AUC ([1]; G292CLONEA141B1_BONE ACH-000082 PR500): 0.53 | KG-FP-003-AUC ([1]; G361_SKIN ACH-000572 PR500): 1.00 | KG-FP-003-AUC ([1]; G402_SOFT_TISSUE ACH-000375 PR300): 0.43 | KG-FP-003-AUC ([1]; G402_SOFT_TISSUE ACH-000375 PR500): 0.69 | KG-FP-003-AUC ([1]; G415_BILIARY_TRACT ACH-001850 PR300): 0.65 | KG-FP-003-AUC ([1]; GAMG_CENTRAL_NERVOUS_SYSTEM ACH-000098 PR500): 0.45 | KG-FP-003-AUC ([1]; GB2_BILIARY_TRACT ACH-001961 PR300): 0.92 | KG-FP-003-AUC ([1]; GCIY_STOMACH ACH-000047 PR500): 0.98 | KG-FP-003-AUC ([1]; GCT27_TESTIS ACH-001502 PR300): 0.73 | KG-FP-003-AUC ([1]; GCT_SOFT_TISSUE ACH-000835 PR500): 0.53 | KG-FP-003-AUC ([1]; GI1_CENTRAL_NERVOUS_SYSTEM ACH-000756 PR500): 0.74 | Duration of sustained TEAD1 degradation [2]: up to 12 days | IC50 [3]: 27 ± 7 nM
